Test: PPI after repeated low-dose ropinirole
Assay type: in vivo
Details: same low doses as quinpirole

CCCN(CCC)CCc1cccc2c1CC(=O)N2 [ropinirole]
effect on PPI over time: acts like quinpirole to attenuate PPI symptoms over time

— patent publication US20050171139A1, “Treating psychotic symptoms” (priority 2003, published 2005)
